A short description of assay [1]: Displacement of [3H]2BFI from Imidazoline receptor 2 in Sprague-Dawley rat brain P2 membrans after […] by liquid scintillation counting. For orientation: Loss of bound radioactivity is the signal in a displacement assay; it reports binding, not function.
Assay [2] has as its target T1, Adrenergic receptor alpha-1 (Rattus norvegicus, UniProt P15823+P23944+P43140).
T1 sequence (P15823 whole entry): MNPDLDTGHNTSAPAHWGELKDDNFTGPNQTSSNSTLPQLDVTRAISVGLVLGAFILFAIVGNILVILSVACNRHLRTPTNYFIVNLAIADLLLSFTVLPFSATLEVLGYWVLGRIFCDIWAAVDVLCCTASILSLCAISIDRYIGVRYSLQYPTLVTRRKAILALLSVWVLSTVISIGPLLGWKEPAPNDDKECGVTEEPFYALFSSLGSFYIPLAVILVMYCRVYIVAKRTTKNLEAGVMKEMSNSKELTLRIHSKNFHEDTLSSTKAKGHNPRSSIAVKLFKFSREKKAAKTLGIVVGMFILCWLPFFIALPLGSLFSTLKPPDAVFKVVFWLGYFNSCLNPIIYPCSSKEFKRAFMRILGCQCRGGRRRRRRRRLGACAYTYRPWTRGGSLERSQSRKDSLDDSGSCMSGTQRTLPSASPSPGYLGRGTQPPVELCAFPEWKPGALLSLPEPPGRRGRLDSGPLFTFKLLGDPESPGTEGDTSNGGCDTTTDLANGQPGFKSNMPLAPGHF
T1 sequence (P23944 whole entry): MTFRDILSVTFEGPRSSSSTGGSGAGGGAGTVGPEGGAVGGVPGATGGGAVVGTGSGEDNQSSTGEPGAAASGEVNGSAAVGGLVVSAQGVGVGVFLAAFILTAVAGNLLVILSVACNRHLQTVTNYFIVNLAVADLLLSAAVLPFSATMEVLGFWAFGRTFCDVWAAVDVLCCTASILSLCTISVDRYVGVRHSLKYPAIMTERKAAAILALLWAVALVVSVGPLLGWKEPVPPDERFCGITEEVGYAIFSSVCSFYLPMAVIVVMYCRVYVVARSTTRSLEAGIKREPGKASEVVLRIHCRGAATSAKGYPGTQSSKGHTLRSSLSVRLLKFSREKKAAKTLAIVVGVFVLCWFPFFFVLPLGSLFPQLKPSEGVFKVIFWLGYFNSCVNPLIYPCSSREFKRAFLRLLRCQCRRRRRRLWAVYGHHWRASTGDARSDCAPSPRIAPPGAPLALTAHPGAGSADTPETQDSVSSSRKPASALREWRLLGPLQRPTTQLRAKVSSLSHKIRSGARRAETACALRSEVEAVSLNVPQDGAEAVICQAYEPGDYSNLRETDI
T1 sequence (P43140 whole entry): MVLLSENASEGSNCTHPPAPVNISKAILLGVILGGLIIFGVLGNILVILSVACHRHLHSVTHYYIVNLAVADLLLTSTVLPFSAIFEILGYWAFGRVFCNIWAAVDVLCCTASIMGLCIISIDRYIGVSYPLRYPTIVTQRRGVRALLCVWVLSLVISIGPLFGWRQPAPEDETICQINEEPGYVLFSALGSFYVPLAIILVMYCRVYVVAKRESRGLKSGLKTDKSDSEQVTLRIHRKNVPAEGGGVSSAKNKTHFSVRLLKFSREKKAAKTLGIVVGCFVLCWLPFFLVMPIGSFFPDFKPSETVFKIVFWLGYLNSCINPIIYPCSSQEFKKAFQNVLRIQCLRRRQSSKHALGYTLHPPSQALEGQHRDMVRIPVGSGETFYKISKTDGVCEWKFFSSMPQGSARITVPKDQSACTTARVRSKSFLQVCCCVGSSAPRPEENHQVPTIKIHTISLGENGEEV
Briefly: Displacement of [3H]prazosine from Alpha-1 adrenergic receptor in Sprague-Dawley rat brain P2 membranes after […] by liquid scintillation counting.

The subject of assay [3] is Rattus norvegicus. As to the kind of experiment: Antihypertensive activity in anesthetized Wistar rat assessed as change in heart rate at 0.1 mg/kg, iv administered as bolus dose after 60 mins (reference value: -6.2 […]). The class given is functional.
Assay [4] concerns Rattus norvegicus. As to the kind of experiment: Antihypertensive activity in anesthetized Wistar rat assessed as change in heart rate at 0.1 mg/kg, iv administered as bolus dose after 2 mins (reference value: -0.6 […]). The class given is functional.
For assay [5], the system named is Rattus norvegicus. As to the kind of experiment: Antihypertensive activity in anesthetized Wistar rat assessed as change in mean arterial blood pressure at 0.1 mg/kg, iv administered as bolus dose after 60 mins (reference value: -3.5 mmHg). The class given is functional.
In assay [6] the test system is Rattus norvegicus. Briefly: Antihypertensive activity in anesthetized Wistar rat assessed as change in heart rate at 0.1 mg/kg, iv administered as bolus dose after 30 mins (reference value: -8.6 […]). It is filed as functional.
For assay [7], the system named is Rattus norvegicus. Briefly: Antihypertensive activity in anesthetized Wistar rat assessed as change in heart rate at 0.1 mg/kg, iv administered as bolus dose after 15 mins (reference value: -6.0 […]). The class given is functional.
Assay [8] concerns Rattus norvegicus. Briefly: Antihypertensive activity in anesthetized Wistar rat assessed as change in mean arterial blood pressure at 0.1 mg/kg, iv administered as bolus dose after 15 mins (reference value: -0.8 mmHg). It is filed as functional.
Assay [9] has as its system Rattus norvegicus. Briefly: Antihypertensive activity in anesthetized Wistar rat assessed as change in mean arterial blood pressure at 0.1 mg/kg, iv administered as bolus dose after 30 mins (reference value: -1.3 mmHg). The class given is functional.
Assay [10] relates to Rattus norvegicus. Briefly: Antihypertensive activity in anesthetized Wistar rat assessed as change in mean arterial blood pressure at 0.1 mg/kg, iv administered as bolus dose after 5 mins (reference value: 0.4 mmHg). It is filed as functional.

On to `Cl.c1ccc2c(c1)ccn2CC1=NCCN1`, for which the values for the inhibitory constant (Ki) in assay [1] and in assay [2] were 197 nM and 61.4 nM, respectively. Also, the Activity with Rattus norvegicus [3] is given as -75.1 bpm; in the assay on Rattus norvegicus [4], -138.4 bpm; in the assay with Rattus norvegicus [5], -38.5 mmHg; with Rattus norvegicus [6], -105.3 bpm; with Rattus norvegicus [7], -115.2 bpm; in the assay on Rattus norvegicus [8], 6.9 mmHg. Besides, the values for the Activity in the assay on Rattus norvegicus [9] and with Rattus norvegicus [10] were -27.9 mmHg and 33.7 mmHg, respectively.

In the case of `Cl.Clc1cccc2ccn(CC3=NCCN3)c12`, the Ki (commonly a dissociation constant, usually derived from enzyme kinetics or from competition with a known ligand) amounted to 71.1 nM in assay [1] and 6.82 nM in assay [2]. For the same molecule, the Activity in the assay with Rattus norvegicus [3] is given as -129.4 bpm; with Rattus norvegicus [4] it was -89.6 bpm; in the assay on Rattus norvegicus [5], -61.2 mmHg; in the assay with Rattus norvegicus [6] it was -125.4 bpm; in the assay with Rattus norvegicus [7], -130.7 bpm; in the assay with Rattus norvegicus [8], -36 mmHg. The figures for the Activity with Rattus norvegicus [9] and in the assay on Rattus norvegicus [10] were -56.1 mmHg and 7.4 mmHg, respectively.

In the case of `Br.Cc1cccc2ccn(CC3=NCCN3)c12`, the results for the Ki in [1] and in assay [2] were 1160 nM and 24.97 nM, respectively. Besides, the Activity was -87.7 bpm in the assay with Rattus norvegicus [3]; -61.3 bpm with Rattus norvegicus [4]; -40.9 mmHg with Rattus norvegicus [5]; -111.7 bpm with Rattus norvegicus [6]; -107.5 bpm in the assay with Rattus norvegicus [7]; -39.2 mmHg in the assay on Rattus norvegicus [8]. The results for the Activity in the assay with Rattus norvegicus [9] and in the assay on Rattus norvegicus [10] were -46.5 mmHg and -4.2 mmHg, respectively.

For the origin of these results see ChEMBL document CHEMBL3797164, “Transfer of SAR information from hypotensive indazole to indole derivatives acting at α-adrenergic receptors: In vitro and in vivo studies” (Eur J Med Chem, 2016).
